Measured values as given in the supplement of paper PMC11451515.

Tests used:
Conditions in all cases: 48 h
NOMO1 [1] = assay: AUC of viability dose-response curve (% viability x log10 dose units); higher = less sensitive
How it was run: (§1)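 Medium-adapted leukemia cells in 1536-well plates, at 500 or 1000 cells/well, were incubated for 48 h at 37°C with library compounds in DMSO at 11 threefold doses from 47 μM to 0.79 nM. CellTiter-Glo One luminescence normalised per plate to DMSO and cell-free wells was fitted with a four-parameter log-logistic model over log10 doses. Area under the curve was integrated from this fit by trapezoidal rule, with curves beyond full viability scaled and failed quality-control curves removed.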

P12-Ichikawa [2] = assay: as above
How it was run: as §1

SEM cells [3] = assay: as above
How it was run: as §1

NOMO1 [4] = assay: cell viability relative to DMSO control; higher = less cytotoxic
How it was run: (§2)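 NOMO1 or SEM (500 cells/well) or P12-Ichikawa (1000 cells/well) leukemia cells were adapted for at least four passages in each medium. They were seeded in 1536-well plates (5 μl) and pin-dosed with library compounds in DMSO over an 11-point threefold series, 47 μM to 0.79 nM. CellTiter-Glo One luminescence was read after 48 h at 37°C. Viability is the per-plate percentage relative to DMSO wells, with cell-free wells as background.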

P12-Ichikawa [5] = assay: as above
How it was run: as §2

SEM cells [6] = assay: as above
How it was run: as §2

CC[C@@H](C(N)=O)N1CCCC1=O
AUC of viability dose-response curve
Conditions	NOMO1 [1]	P12-Ichikawa [2]	SEM cells [3]
HPLM + 10% dialyzed FBS	442	458	450
RPMI 5 mM glucose + 10% FBS	466	460	420
RPMI 5 mM glucose + 10% dialyzed FBS	456	467	443

CO[C@H]1/C=C/O[C@@]2(C)Oc3c(C)c(O)c4c(O)c(c(/C=N\N5CCN(C6CCCC6)CC5)c(O)c4c3C2=O)NC(=O)/C(C)=C\C=C\[C@H](C)[C@H](O)[C@@H](C)[C@@H](O)[C@@H](C)[C@H](OC(C)=O)[C@@H]1C
cell viability [%]
Conditions	NOMO1 [4]	P12-Ichikawa [5]	SEM cells [6]
HPLM + 10% dialyzed FBS, 0.000781 µM	119	112	78.4
HPLM + 10% dialyzed FBS, 0.00234 µM	123	122	70.3
HPLM + 10% dialyzed FBS, 0.00702 µM	104	117	63.7
HPLM + 10% dialyzed FBS, 0.0211 µM	116	109	62.1
HPLM + 10% dialyzed FBS, 0.0632 µM	90.5	104	45.6
HPLM + 10% dialyzed FBS, 0.19 µM	93.4	98.2	15
HPLM + 10% dialyzed FBS, 0.569 µM	79.3	98.2	6.95
HPLM + 10% dialyzed FBS, 1.71 µM	52.3	71.5	3.02
HPLM + 10% dialyzed FBS, 5.12 µM	28.9	19.8	1.55
HPLM + 10% dialyzed FBS, 15.4 µM	6.78	1.51	1.63
HPLM + 10% dialyzed FBS, 46.1 µM	0.815	-0.607	1.24
RPMI 5 mM glucose + 10% FBS, 0.000781 µM	123	–	39.3
RPMI 5 mM glucose + 10% FBS, 0.00234 µM	110	87.9	42.6
RPMI 5 mM glucose + 10% FBS, 0.00702 µM	111	93.7	34.7
RPMI 5 mM glucose + 10% FBS, 0.0211 µM	107	78.7	33.5
RPMI 5 mM glucose + 10% FBS, 0.0632 µM	109	70.7	29.1
RPMI 5 mM glucose + 10% FBS, 0.19 µM	76.5	70.7	9.34
RPMI 5 mM glucose + 10% FBS, 0.569 µM	75.1	68	4.87
RPMI 5 mM glucose + 10% FBS, 1.71 µM	51.8	51.8	2.56
RPMI 5 mM glucose + 10% FBS, 5.12 µM	17.9	5.83	1.35
RPMI 5 mM glucose + 10% FBS, 15.4 µM	3.98	0.395	1.05
RPMI 5 mM glucose + 10% FBS, 46.1 µM	0.906	-0.516	0.91
RPMI 5 mM glucose + 10% dialyzed FBS, 0.000781 µM	100	101	58
RPMI 5 mM glucose + 10% dialyzed FBS, 0.00234 µM	98.4	111	63.5
RPMI 5 mM glucose + 10% dialyzed FBS, 0.00702 µM	95.2	–	60.5
RPMI 5 mM glucose + 10% dialyzed FBS, 0.0211 µM	80.2	87.7	47.5
RPMI 5 mM glucose + 10% dialyzed FBS, 0.0632 µM	83.4	84.1	50.4
RPMI 5 mM glucose + 10% dialyzed FBS, 0.19 µM	79.3	74.6	19.8
RPMI 5 mM glucose + 10% dialyzed FBS, 0.569 µM	64.7	85.2	8.21
RPMI 5 mM glucose + 10% dialyzed FBS, 1.71 µM	52.9	61.8	2.82
RPMI 5 mM glucose + 10% dialyzed FBS, 5.12 µM	24.1	13.6	1.68
RPMI 5 mM glucose + 10% dialyzed FBS, 15.4 µM	3.08	5.16	1.26
RPMI 5 mM glucose + 10% dialyzed FBS, 46.1 µM	0.433	0.889	1.06

NOMO1 [1]
Conditions	AUC of viability dose-response curve
HPLM + 10% dialyzed FBS	308
RPMI 5 mM glucose + 10% FBS	300
RPMI 5 mM glucose + 10% dialyzed FBS	304

CC(=O)C1=C(O)C2(C)C(=CC1=O)Oc1c(C(C)=O)c(O)c(C)c(O)c12 (configuration not stated)
cell viability [%], SEM cells [6]
Conditions	HPLM + 10% dialyzed FBS	RPMI 5 mM glucose + 10% FBS
0.000781 µM	83.1	99.1
0.00234 µM	120	145
0.00702 µM	123	123
0.0211 µM	123	129
0.0632 µM	124	128
0.19 µM	133	152
0.569 µM	118	153
1.71 µM	149	124
5.12 µM	133	136
15.4 µM	149	133
46.1 µM	124	130

AUC of viability dose-response curve
Conditions	NOMO1 [1]	P12-Ichikawa [2]	SEM cells [3]
HPLM + 10% dialyzed FBS	328	347	459
RPMI 5 mM glucose + 10% FBS	305	342	452
RPMI 5 mM glucose + 10% dialyzed FBS	321	375	448

CN1C(=O)CCS(=O)(=O)C1c1ccc(Cl)cc1 (configuration not stated)
AUC of viability dose-response curve
Conditions	HPLM + 10% dialyzed FBS	RPMI 5 mM glucose + 10% FBS	RPMI 5 mM glucose + 10% dialyzed FBS
NOMO1 [1]	447	472	459
P12-Ichikawa [2]	452	448	442

O=C(/C=C/C=C/c1ccc2c(c1)OCO2)N1CCCCC1
cell viability [%], SEM cells [6]
Conditions	HPLM + 10% dialyzed FBS	RPMI 5 mM glucose + 10% dialyzed FBS
0.000781 µM	129	114
0.00234 µM	119	129
0.00702 µM	125	103
0.0211 µM	127	157
0.0632 µM	139	146
0.19 µM	128	129
0.569 µM	116	150
1.71 µM	133	131
5.12 µM	132	167
15.4 µM	119	140
46.1 µM	87.1	108

AUC of viability dose-response curve
Conditions	NOMO1 [1]	P12-Ichikawa [2]	SEM cells [3]
HPLM + 10% dialyzed FBS	429	446	466
RPMI 5 mM glucose + 10% FBS	444	463	448
RPMI 5 mM glucose + 10% dialyzed FBS	448	467	456

Cc1nnc(N[S+](=O)([O-])c2ccc(N)cc2)s1
AUC of viability dose-response curve
Conditions	HPLM + 10% dialyzed FBS	RPMI 5 mM glucose + 10% FBS	RPMI 5 mM glucose + 10% dialyzed FBS
P12-Ichikawa [2]	390	394	412
SEM cells [3]	450	443	449

OCCn1cc(-c2ccc3c(c2)CC/C3=N\O)c(-c2ccncc2)n1
AUC of viability dose-response curve
Conditions	NOMO1 [1]	P12-Ichikawa [2]	SEM cells [3]
HPLM + 10% dialyzed FBS	464	444	462
RPMI 5 mM glucose + 10% FBS	468	450	465
RPMI 5 mM glucose + 10% dialyzed FBS	472	440	472

CC1=CC=C(C=C1)N(C\C2=N\CCN2)C3=CC=CC(=C3)O
SEM cells [6], HPLM + 10% dialyzed FBS
Conditions	cell viability [%]
0.000781 µM	118
0.00234 µM	114
0.00702 µM	122
0.0211 µM	120
0.0632 µM	117
0.19 µM	126
0.569 µM	132
1.71 µM	131
5.12 µM	131
15.4 µM	131
46.1 µM	68.4

AUC of viability dose-response curve
Conditions	NOMO1 [1]	P12-Ichikawa [2]	SEM cells [3]
HPLM + 10% dialyzed FBS	352	473	454
RPMI 5 mM glucose + 10% FBS	403	452	464
RPMI 5 mM glucose + 10% dialyzed FBS	407	459	468

Nc1nc2ccc(OC(F)(F)F)cc2s1
cell viability [%], SEM cells [6]
Conditions	HPLM + 10% dialyzed FBS	RPMI 5 mM glucose + 10% dialyzed FBS
0.000781 µM	137	127
0.00234 µM	119	123
0.00702 µM	120	125
0.0211 µM	133	131
0.0632 µM	134	119
0.19 µM	127	129
0.569 µM	131	147
1.71 µM	131	123
5.12 µM	130	130
15.4 µM	114	118
46.1 µM	78.3	64

AUC of viability dose-response curve
Conditions	NOMO1 [1]	P12-Ichikawa [2]	SEM cells [3]
HPLM + 10% dialyzed FBS	453	462	462
RPMI 5 mM glucose + 10% FBS	455	461	461
RPMI 5 mM glucose + 10% dialyzed FBS	455	466	461

NCCS(=O)(=O)O
AUC of viability dose-response curve
Conditions	NOMO1 [1]	P12-Ichikawa [2]	SEM cells [3]
HPLM + 10% dialyzed FBS	441	469	463
RPMI 5 mM glucose + 10% FBS	455	458	471
RPMI 5 mM glucose + 10% dialyzed FBS	449	463	468
